Results published in patent US20230278972A1, “SUBSTITUTED HALOALKYL SULFONANILIDE HERBICIDES” (FMC Corporation, priority 2020, published 2023).

Legend:
Format in all cases: in vivo
kochia (Bassia scoparia) = assay: Test A1 preemergence, kochia
Procedure, shortened: (§1)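 Pre: seeds in loam/sand blend, directed soil spray. Post: potted plants, same soil, 2–10 cm, 1–2 leaf stage. Chemicals in non-phytotoxic solvent + surfactant for both.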

[1] = tested on: wheat (Triticum aestivum); assay: Test A1 postemergence, wheat; settings: for Plant response rating, Wheat: Postemergence; for Wheat plant response rating: postemergence
Procedure, shortened: (§2)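 Plants grown in pots of loam/sand mix; preemergence = soil-directed spray on seeded pots, postemergence = spray at 1–2 leaves, height 2–10 cm; test chemicals formulated in non-phytotoxic solvent with surfactant.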

[2] = tested on: goosegrass (Eleusine indica); assay: Test A1 postemergence, goosegrass; settings: for Plant response rating, Goosegrass: Postemergence; for Goosegrass plant response rating: postemergence
Procedure, shortened: as §2

[3] = tested on: ragweed (common ragweed, Ambrosia artemisiifolia); assay: Test A1 postemergence, ragweed; settings: for Plant response rating, Ragweed: Postemergence; for Ragweed plant response rating: postemergence
Procedure, shortened: as §1

[4] = 31 g ai/ha, 0 to 100 scale (0 no effect, 100 complete control)
[5] = 125 g ai/ha, 0 to 100 scale, 0 no effect, 100 complete control
[6] = 31 g ai/ha, 0 to 100 scale (0 no effect, 100 complete control), 10 days
[7] = 125 g ai/ha, 0 to 100 scale (0 no effect, 100 complete control), 10 days
[8] = 125 g ai/ha, 0 to 100 scale (0 no effect, 100 complete control)

Row | SMILES | Plant response rating, Kochia (kochia (Bassia scoparia); [4]) | Plant response rating, Kochia (kochia (Bassia scoparia); [5]) | Plant response rating, Wheat [1, 6] | Plant response rating, Wheat ([1]; 125 g ai/ha, 0 to 100 scale) | Plant response rating, Goosegrass [2, 6] | Plant response rating, Goosegrass ([2]; 125 g ai/ha, 0 to 100 scale) | Plant response rating, Ragweed [3, 6] | Plant response rating, Ragweed ([3]; 125 g ai/ha, 0 to 100 scale) | Wheat plant response rating [1, 4] | Plant response rating, Wheat [1, 7] | Goosegrass plant response rating [2, 4] | Plant response rating, Goosegrass [2, 7] | Ragweed plant response rating [3, 4] | Plant response rating, Ragweed [3, 7] | Plant response rating, Kochia (kochia (Bassia scoparia); 500 g ai/ha, 0 to 100 scale (0 no effect, 100 complete control)) | Plant response rating, Wheat ([1]; 500 g ai/ha, 0 to 100 scale) | Plant response rating, Goosegrass ([2]; 500 g ai/ha, 0 to 100 scale) | Plant response rating, Ragweed ([3]; 500 g ai/ha, 0 to 100 scale) | Plant response rating, Kochia (kochia (Bassia scoparia); [8])
1 | Cc1c(NS(=O)(=O)C(F)(F)F)cc(C(=O)N2CCSCC2)c(C)c1C [Compound 283] | 30 | 90 | 10 | 50 | 10 | 30 | 30 | 80 | – | – | – | – | – | – | – | – | – | – | –
2 | Cc1cc(C)c(N2CCC3(CCC(C(F)(F)F)CC3)C2=O)cc1NS(=O)(=O)C(F)(F)F (stereo not drawn) [Compound 400] | 0 | 20 | – | – | – | – | – | – | 30 | 30 | 10 | 80 | 30 | 80 | – | – | – | – | –
3 | Cc1c(C2=NOC3(CCCC3)C2)cc(N(COC(=O)C(C)(C)C)S(=O)(=O)C(F)(F)F)c(C)c1C [Compound 382] | 0 | 0 | – | – | – | – | – | – | 0 | 60 | 0 | 0 | 20 | 40 | – | – | – | – | –
4 | Cc1cc(C)c(N2CCC3(CCC(C)CC3)C2=O)cc1NS(=O)(=O)C(F)(F)F (stereo not drawn) [Compound 402] | 0 | 30 | – | – | – | – | – | – | 0 | 0 | 20 | 70 | 50 | 50 | – | – | – | – | –
5 | Cc1cc(C)c(N(COC(=O)C(C)(C)C)S(=O)(=O)C(F)(F)F)cc1N1CCC2(CCC(F)(F)CC2)C1=O [Compound 397] | – | 90 | – | – | – | – | – | – | – | 60 | – | 90 | – | 80 | 100 | 70 | 90 | 80 | –
6 | Cc1cc(C)c(C2=NOC(C(C)C)C2)cc1NS(=O)(=O)C(F)(F)F (stereo not drawn) [Compound 381] | 0 | 60 | – | – | – | – | – | – | 20 | 70 | 0 | 50 | 0 | 50 | – | – | – | – | –
7 | CCOc1cccc2c1C(=O)N(c1cc(N(COC(=O)C(C)(C)C)S(=O)(=O)Cl)c(C)cc1C)C2 [Compound 414] | 20 | – | – | – | – | – | – | – | 0 | 0 | 0 | 0 | 40 | 70 | – | – | – | – | 80
8 | COc1cccc2c1C(=O)N(c1cc(N(COC(=O)C(C)(C)C)S(=O)(=O)Cl)c(C)cc1C)C2 [Compound 413] | 70 | – | – | – | – | – | – | – | 0 | 0 | 0 | 0 | 60 | 90 | – | – | – | – | 90
9 | Cc1ccc(C2=NOC3CCCC23)cc1NS(=O)(=O)C(F)(F)F (stereo not drawn) [Compound 377] | 0 | 20 | – | 20 | – | 0 | – | 30 | 0 | – | 0 | – | 20 | – | – | – | – | – | –
10 | C#CCN(C)C(=O)c1cc(NS(=O)(=O)C(F)(F)F)c(C)c(C)c1C [Compound 368] | 20 | 90 | – | 60 | – | 90 | – | 80 | 20 | – | 30 | – | 50 | – | – | – | – | – | –
11 | CCOC(=O)N(c1cc(C(=O)N2CCSCC2)c(C)c(C)c1C)S(=O)(=O)C(F)(F)F [Compound 286] | 0 | 80 | 0 | 20 | 0 | 40 | 0 | 40 | – | – | – | – | – | – | – | – | – | – | –
12 | Cc1cc(Cl)c(NS(=O)(=O)C(F)(F)F)cc1N1CC2(CCCCC2)OC1=O [Compound 394] | 30 | 60 | – | – | – | – | – | – | 10 | 40 | 0 | 30 | 90 | 90 | – | – | – | – | –
13 | Cc1cc(C)c(N(COC(=O)C(C)(C)C)S(=O)(=O)C(F)(F)F)cc1N1CCC2(CCC(C)CC2)C1=O (stereo not drawn) [Compound 401] | 0 | 0 | – | – | – | – | – | – | 0 | 10 | 0 | 90 | 60 | 90 | – | – | – | – | –
14 | Cc1cc(C)c(N2Cc3cccc(Br)c3C2=O)cc1NS(=O)(=O)Cl [Compound 415] | 10 | – | – | – | – | – | – | – | 20 | 70 | 70 | 90 | 30 | 70 | – | – | – | – | 60
15 | Cc1c(NS(=O)(=O)C(F)(F)F)cc(C2=NOC3(CCCC3)C2)c(C)c1C [Compound 380] | 0 | 60 | – | – | – | – | – | – | 0 | 80 | 0 | 30 | 40 | 60 | – | – | – | – | –
16 | Cc1cc(C)c(N(S(=O)(=O)C(F)(F)F)S(=O)(=O)C(F)(F)F)cc1N1CCC2(CCC(C(F)(F)F)CC2)C1=O (stereo not drawn) [Compound 399] | 0 | 50 | – | – | – | – | – | – | 60 | 60 | 40 | 90 | 50 | 90 | – | – | – | – | –
17 | C#CCN(C)C(=O)c1cc(N(COC(=O)C(C)(C)C)S(=O)(=O)C(F)(F)F)c(C)c(C)c1C [Compound 371] | 0 | 70 | – | 60 | – | 80 | – | 70 | 0 | – | 0 | – | 40 | – | – | – | – | – | –
18 | CCC1CC(c2cc(N(COC(=O)C(C)(C)C)S(=O)(=O)C(F)(F)F)c(C)cc2C)=NO1 (stereo not drawn) [Compound 376] | 0 | 80 | – | 40 | – | 50 | – | 40 | 10 | – | 0 | – | 20 | – | – | – | – | – | –
19 | CCOC(=O)N(c1cc(C2=NOC3CCCC23)c(CC)cc1C)S(=O)(=O)C(F)(F)F (stereo not drawn) [Compound 379] | 0 | 10 | – | 70 | – | 60 | – | 40 | 20 | – | 10 | – | 20 | – | – | – | – | – | –
20 | Cc1c(C(=O)N2C[C@@H](C)O[C@H](C)C2)cc(N(COC(=O)C(C)(C)C)S(=O)(=O)C(F)(F)F)c(C)c1C (relative stereo) [Compound 373] | 0 | 0 | – | 70 | – | 70 | – | 80 | 0 | – | 0 | – | 50 | – | – | – | – | – | –
21 | Cc1cc(Cl)c(NS(=O)(=O)C(F)(F)F)cc1N1CCC2(CCCCC2)C1=O [Compound 393] | 60 | 80 | – | – | – | – | – | – | 30 | 60 | 0 | 70 | 60 | 70 | – | – | – | – | –
22 | COC1CCN(C(=O)c2cc(N(COC(=O)C(C)(C)C)S(=O)(=O)C(F)(F)F)c(C)c(C)c2C)CC1 [Compound 370] | 0 | 20 | – | 20 | – | 60 | – | 70 | 10 | – | 0 | – | 50 | – | – | – | – | – | –
23 | Cc1c(C(=O)N2CCSCC2)cc(N(COC(=O)C(C)(C)C)S(=O)(=O)C(F)(F)F)c(C)c1C [Compound 285] | 20 | 70 | 10 | 20 | 0 | 50 | 20 | 90 | – | – | – | – | – | – | – | – | – | – | –
24 | Cc1cc(C)c(N(COC(=O)C(C)(C)C)S(=O)(=O)C(F)(F)F)cc1C1=NOC(C(C)C)C1 (stereo not drawn) [Compound 383] | 0 | 0 | – | – | – | – | – | – | 0 | 70 | 0 | 20 | 30 | 40 | – | – | – | – | –
25 | Cc1cc(C)c(C2=NOC3OCCCC23)cc1NS(=O)(=O)C(F)(F)F (stereo not drawn) [Compound 372] | 0 | 70 | – | 70 | – | 80 | – | 80 | 10 | – | 0 | – | 40 | – | – | – | – | – | –
26 | Cc1cc(C)c(N2Cc3cccc(C)c3C2=O)cc1NS(=O)(=O)Cl [Compound 408] | 0 | – | – | – | – | – | – | – | 60 | 70 | 90 | 90 | 40 | 90 | – | – | – | – | 70
27 | Cc1cc(C)c(N2CC3(CCCCC3)CC2=O)cc1NS(=O)(=O)C(F)(F)F [Compound 392] | 20 | 20 | – | – | – | – | – | – | 0 | 30 | 0 | 0 | 30 | 70 | – | – | – | – | –
